Source: patent publication US5321039A, “Method of inducing a histamine agonist action on H2 receptors” (Societe Civile Bioprojet, priority 1990, dated 1994)

What was measured:
[1] = test system: secretion of gastric acid which is stimulated by histamine; details: opposes action of histamine; Ganellin; cited from earlier work
histamine H3 receptor = details: EP-A-0 420 396; cited from earlier work
histamine H2 receptor = details: Sterk et al.; cited from earlier work
H3 receptor = target: T1, H3 receptor (Rattus norvegicus, UniProt Q9QYN8); assay: inhibition of liberation and synthesis of endogenous histamine from depolarized brain sections (H3 agonism); assay type: cell-based; details: for potency relative to histamine (times more powerful): H3 agonist
T1 construct: liberation and synthesis of endogenous histamine from depolarized brain sections; from tissue; host or cells: brain sections (slices)

[2] = test system: histamine synthesis in the brain of rats; assay: inhibition of histamine synthesis in vivo (brain, peripheral organs)

T1 sequence (Q9QYN8 whole entry): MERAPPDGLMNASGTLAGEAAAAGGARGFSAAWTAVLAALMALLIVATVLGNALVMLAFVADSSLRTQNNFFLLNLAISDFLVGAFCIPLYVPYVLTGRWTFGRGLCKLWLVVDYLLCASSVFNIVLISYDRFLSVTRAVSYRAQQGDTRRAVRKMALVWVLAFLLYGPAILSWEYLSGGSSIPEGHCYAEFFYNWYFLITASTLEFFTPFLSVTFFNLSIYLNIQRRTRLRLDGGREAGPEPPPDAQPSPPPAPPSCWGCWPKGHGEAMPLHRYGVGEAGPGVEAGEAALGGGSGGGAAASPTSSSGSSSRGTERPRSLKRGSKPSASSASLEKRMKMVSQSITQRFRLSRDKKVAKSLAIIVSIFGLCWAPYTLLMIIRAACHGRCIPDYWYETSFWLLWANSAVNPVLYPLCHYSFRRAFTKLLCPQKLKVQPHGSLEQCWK

EC50 (H3 receptor; read-out: EC50 as H3 agonist) | SMILES | 50% inhibiting dose on rat gastric secretion [1] | H3 agonist potency and selectivity in words (histamine H3 receptor) | concentration stimulating the H2 receptor (histamine H2 receptor) | partial agonist efficacy at histamine H2 receptor (histamine H2 receptor) | type of agonism on the H3 receptor (H3 receptor) | potency relative to histamine (times more powerful) (H3 receptor) | concentration for H3 relative to that necessary for engagement of the H2 receptor (times lower) (H3 receptor; H3 versus H2) | concentration stimulating the H3 receptor (H3 receptor; depolarized brain sections) | crossing of the blood-brain barrier ([2]; inferred from brain effect at oral 3 mg/kg in rats) | inhibition of histamine synthesis in peripheral organs such as the lungs ([2]; peripheral organs, lungs) | inhibition of histamine synthesis in the brain ([2]; rats, oral dose of 3 mg/kg) | H3 agonist activity in vivo ([2]; in vivo test not specified)
– | N=C(N)SCCc1cnc[nH]1 [Compound I, S-[2-(4(5)-imidazolyl)-ethyl] isothiourea] | about 200 μmoles/kg | highly potent selective histamine H3 -agonists | about 0.1 mM | 50% | full histamine agonist | 62 times | about 100,000 times | about 1 nanomolar | adequately crosses the blood-brain barrier | inhibits at a very low dose | maximum inhibition | –
– | N=C(N)CCCc1c[nH]cn1 [Compound III, 4-(4(5)-imidazolyl) butyramidine] | – | highly potent selective histamine H3 -agonists | – | – | – | – | – | – | – | – | – | –
10 nM | CN=C(N)SCCc1c[nH]cn1 [Compound II] | – | – | – | – | full and comparatively powerful | about 6 times | – | – | – | – | – | active in vivo
